Common to all, as to type: cell-based
The test system of data set [1] is M. tuberculosis H37Rv (ATCC 27294). Kind of data set: MIC by broth dilution method, M. tuberculosis H37Rv. The note with it: Mycobacterium tuberculosis.
A short description of data set [2]: Cytotoxicity assay (MTT) in macrophage J774 cells. The note with it: mouse, J774 macrophage cells; also called safety index. The procedure:
(§1) The study was carried out using macrophage J774 cells line (ATCC-USA). Cells were grown in Rosewell Park Memorial Institute Medium (RPMI) containing 10% fetal calf serum (FCS) and supplemented with 75 mg/liter penicillin, 100 mg/liter streptomycin, 110 mg/liter Sodium pyruvate, 2.38 gm/liter HEPES, 0.05 mM 2 β-mercaptoethanol, and 2 gm/liter NaHCO3, in a humidified atmosphere in 5% CO2 at 37° C., and were sub-cultured at 1:4 ratio once a week.
(§2) Cells were plated at a density of 3×10^4 cells/cm^2 and maintained in culture medium for 12 hours. Cells were seeded onto 96-well flat bottom plates and FCS was reduced to 5% for the experiment. Stock solutions of compounds IA1 to IIC10 were prepared fresh to avoid oxidation. Cells were incubated with the compounds (40 μg/ml) for 24 hrs.
(§3) After the completion of incubation, the medium was removed and cell viability was evaluated by assaying for the ability of functional mitochondria to catalyze the reduction of 3-(4,5-dimethylthiazol-2-yl)-2,5-diphenyltetrazolium bromide (MTT) to form formazan salt by mitochondrial dehydrogenases, and determined by Elisa reader at 450 nm (Multiskan Spectrum; Thermo Electron Corporation, USA). Percentage cytotoxicity was calculated with respect to the untreated cells.

Data set [3] has as its system macrophage J774 cells line. In words: Cytotoxicity assay (MTT) in macrophage J774 cells. The note with it: J774 cells, 24 hrs, MTT. The procedure: as §1, §2, §3
The mark [4] stands for this setting: 504 h, broth dilution, 3 weeks, read-out: MIC M. tb H37Rv.
Setting [5] is: read-out: MIC value, text summary: sensitive H37Rv as well as MDR and XDR strains of M. tuberculosis.

Values after ≈ are worked out from the molar mass of the structure shown. Like-named read-outs stand apart in the source and are kept apart here. Where only a bound is given, the exact number is not on record here.

`Cc1ccc(OCc2cc(-c3ccc(OC[C@@]4(C)Cn5cc([N+](=O)[O-])nc5O4)cc3)no2)cc1` [IC17, (R)-2-{4-[5-(4-methylphenoxymethyl)isoxazol-3-yl]phenoxymethyl}-2,3-dihydro-2-methyl-6-nitroimidazo[2,1-b]oxazole]: the MIC in data set [1] (setting [4]) is 0.5 µg/mL (≈ 1.08 µM); in data set [1] (setting [5]) it was < 1 µg/mL. For the same compound, the selectivity ratio at 24 h, 40 μg/ml in data set [2] was > 10. For the same compound, in data set [3], the Cytotoxicity is >40 µg/mL.

Consider `C[C@]1(COc2ccccc2-n2cc(COc3ccccc3F)nn2)Cn2cc([N+](=O)[O-])nc2O1` [IA42], for which the MIC in data set [1] (setting [4]) was 2 µg/mL (≈ 4.29 µM). For the same compound, the selectivity ratio at 24 h, 40 μg/ml in data set [2] was > 10. Besides, in data set [3], the Cytotoxicity is >40 µg/mL.

`COc1ccc(NC(=O)Nc2ccc(OC[C@@]3(C)Cn4cc([N+](=O)[O-])nc4O3)cc2)cc1` [IIA5, (R)-1-(4-methoxyphenyl)-3-{4-(2-methyl-6-nitro-2,3-dihydroimidazo[2,1-b]oxazol-2-yl)methoxyphenyl}urea]: in data set [1] (setting [4]), the MIC was 1 µg/mL (≈ 2.28 µM). The selectivity ratio at 24 h, 40 μg/ml in data set [2] was > 10. Further, the Cytotoxicity in data set [3] is >40 µg/mL.

For the compound `C[C@]1(COc2ccc(S(=O)(=O)N3CCCC3)cc2)Cn2cc([N+](=O)[O-])nc2O1` [IIC9, (R)-2-{4-(pyrrolidin-1-ylsulfonyl)phenoxymethyl}-2,3-dihydro-2-methyl-6-nitroimidazo[2,1-b]oxazole], the MIC in data set [1] (setting [4]) was found to be 1 µg/mL (≈ 2.45 µM). Further, the selectivity ratio at 24 h, 40 μg/ml in data set [2] is > 10. For the same compound, the Cytotoxicity in data set [3] is >40 µg/mL.

For `CCc1ccc(OCc2cn(-c3ccc(OC[C@@]4(C)Cn5cc([N+](=O)[O-])nc5O4)cc3)nn2)cc1` [IA31], the results for the MIC in data set [1] (setting [4]) and in data set [1] (setting [5]) were 0.25 µg/mL (≈ 0.525 µM) and < 1 µg/mL, respectively. For the same compound, in data set [2], the selectivity ratio at 24 h, 40 μg/ml is > 10. The Cytotoxicity in data set [3] is >40 µg/mL.

Consider `C[C@]1(COc2ccccc2-n2cc(COc3ccc(F)cc3)nn2)Cn2cc([N+](=O)[O-])nc2O1` [IA40], for which the MIC in data set [1] (setting [4]) amounted to 4 µg/mL (≈ 8.58 µM). Besides, in data set [2], the selectivity ratio at 24 h, 40 μg/ml was > 10. Further, in data set [3], the Cytotoxicity was >40 µg/mL.

Consider `COc1ccc(-c2cc(-c3ccc(OC[C@@]4(C)Cn5cc([N+](=O)[O-])nc5O4)cc3)no2)cc1` [IC7, (R)-2-{4-[5-(4-methoxyphenyl)isoxazol-3-yl]phenoxymethyl}-2,3-dihydro-2-methyl-6-nitroimidazo[2,1-b]oxazole], for which the minimum inhibitory concentration (MIC) in data set [1] (setting [4]) is 0.5 µg/mL (≈ 1.11 µM); in data set [1] (setting [5]), < 1 µg/mL. Moreover, in data set [2], the selectivity ratio at 24 h, 40 μg/ml is > 10. The Cytotoxicity in data set [3] was >40 µg/mL.

For the compound `C[C@]1(COc2ccc(-c3cc(-c4ccc(OC(F)(F)F)cc4)on3)cc2)Cn2cc([N+](=O)[O-])nc2O1` [IC10, (R)-2-{4-[5-(4-trifluoromethoxyphenyl)isoxazol-3-yl]phenoxymethyl}-2,3-dihydro-2-methyl-6-nitroimidazo[2,1-b]oxazole], the MIC in data set [1] (setting [4]) is 0.5 µg/mL (≈ 0.995 µM); in data set [1] (setting [5]), < 1 µg/mL. The selectivity ratio at 24 h, 40 μg/ml in data set [2] is > 10. Moreover, in data set [3], the Cytotoxicity was >40 µg/mL.

Turning to `C[C@]1(COc2ccc(-n3cc(COc4ccccc4F)nn3)cc2)Cn2cc([N+](=O)[O-])nc2O1` [IA28], the minimum inhibitory concentration (MIC) in data set [1] (setting [4]) was 0.12 µg/mL (≈ 0.257 µM); in data set [1] (setting [5]), < 1 µg/mL. In data set [2], the selectivity ratio at 24 h, 40 μg/ml is > 10. The Cytotoxicity in data set [3] is >40 µg/mL.

Regarding `C[C@]1(COc2ccc(S(=O)(=O)N3CCN(c4cccc(Cl)c4)CC3)cc2)Cn2cc([N+](=O)[O-])nc2O1` [IIC3, (R)-2-{4-[4-(3-chlorophenyl)piperazin-1-yl]sulfonylphenoxymethyl}-2,3-dihydro-2-methyl-6-nitroimidazo[2,1-b]oxazole], the MIC in data set [1] (setting [4]) was found to be 8 µg/mL (≈ 15 µM). The selectivity ratio at 24 h, 40 μg/ml in data set [2] was > 10. In addition, in data set [3], the Cytotoxicity is >40 µg/mL.

Consider `C[C@]1(COc2ccc(-n3cc(-c4ccc(OC(F)(F)F)cc4)nn3)cc2)Cn2cc([N+](=O)[O-])nc2O1` [IA5, (R)-2-{4-[4-(4-trifluoromethoxyphenyl)-1H-1,2,3-triazol-1-yl]phenoxymethyl}-2,3-dihydro-2-methyl-6-nitroimidazo[2,1-b]oxazole], for which the values for the MIC in data set [1] (setting [4]) and in data set [1] (setting [5]) were 0.5 µg/mL (≈ 0.995 µM) and < 1 µg/mL, respectively. The selectivity ratio at 24 h, 40 μg/ml in data set [2] was > 10. Also, the Cytotoxicity in data set [3] is >40 µg/mL.

With `C[C@]1(COc2ccc(S(=O)(=O)N3CCN(c4ccc(OC(F)(F)F)cc4)CC3)cc2)Cn2cc([N+](=O)[O-])nc2O1` [IIC4, (R)-2-{4-[4-(4-trifluoromethoxyphenyl)piperazin-1-yl]sulfonylphenoxymethyl}-2,3-dihydro-2-methyl-6-nitroimidazo[2,1-b]oxazole], the MIC in data set [1] (setting [4]) was 2 µg/mL (≈ 3.43 µM). Also, in data set [2], the selectivity ratio at 24 h, 40 μg/ml was > 10. The Cytotoxicity in data set [3] was >40 µg/mL.

On to `CCCCCc1cn(-c2ccc(OC[C@@]3(C)Cn4cc([N+](=O)[O-])nc4O3)cc2)nn1` [IA15, (R)-2-{4-[4-pentyl-1H-1,2,3-triazol-1-yl]phenoxymethyl}-2,3-dihydro-2-methyl-6-nitroimidazo[2,1-b]oxazole], for which the MIC in data set [1] (setting [4]) was found to be 32 µg/mL (≈ 77.6 µM). Further, the selectivity ratio at 24 h, 40 μg/ml in data set [2] was > 10. Moreover, the Cytotoxicity in data set [3] is >40 µg/mL.

In the case of `C[C@]1(COc2ccc(NC(=O)Nc3ccc(F)cc3)cc2)Cn2cc([N+](=O)[O-])nc2O1` [IIA1, (R)-1-(4-fluorophenyl)-3-{4-(2-methyl-6-nitro-2,3-dihydroimidazo[2,1-b]oxazol-2-yl)methoxyphenyl}urea], the MIC in data set [1] (setting [4]) was 2 µg/mL (≈ 4.68 µM). The selectivity ratio at 24 h, 40 μg/ml in data set [2] is > 10. Also, the Cytotoxicity in data set [3] was >40 µg/mL.

Consider `C[C@]1(COc2ccc(-c3cc(-c4ccc(C(F)(F)F)cc4)on3)cc2)Cn2cc([N+](=O)[O-])nc2O1` [IC5, (R)-2-{4-[5-(4-trifluoromethylphenyl)isoxazol-3-yl]phenoxymethyl}-2,3-dihydro-2-methyl-6-nitroimidazo[2,1-b]oxazole], for which the minimal inhibitory concentration (MIC) in data set [1] (setting [4]) was 1 µg/mL (≈ 2.06 µM). Moreover, the selectivity ratio at 24 h, 40 μg/ml in data set [2] is > 10. Besides, the Cytotoxicity in data set [3] was >40 µg/mL.

Take `C[C@]1(COc2cccc(-n3cc(-c4ccc(F)cc4)nn3)c2)Cn2cc([N+](=O)[O-])nc2O1` [IA17, (R)-2-{3-[4-(4-fluorophenyl)-1H-1,2,3-triazol-1-yl]phenoxymethyl}-2,3-dihydro-2-methyl-6-nitroimidazo[2,1-b]oxazole]: the MIC in data set [1] (setting [4]) came out at 2 µg/mL (≈ 4.58 µM). Also, the Cytotoxicity in data set [3] is >40 µg/mL.

As for `C[C@]1(COc2ccc(S(=O)(=O)N3CCN(c4ccccc4)CC3)cc2)Cn2cc([N+](=O)[O-])nc2O1` [IIC1, (R)-2-{4-(4-phenylpiperazin-1-yl)sulfonylphenoxymethyl}-2,3-dihydro-2-methyl-6-nitroimidazo[2,1-b]oxazole], in data set [1] (setting [4]), the MIC stood at 1 µg/mL (≈ 2 µM). Also, in data set [3], the Cytotoxicity was >40 µg/mL.

As for `CCc1ccc(OCc2cc(-c3ccc(OC[C@@]4(C)Cn5cc([N+](=O)[O-])nc5O4)cc3)no2)cc1` [IC19, (R)-2-{4-[5-(4-ethylphenoxymethyl)isoxazol-3-yl]phenoxymethyl}-2,3-dihydro-2-methyl-6-nitroimidazo[2,1-b]oxazole], the MIC in data set [1] (setting [4]) turned out to be 2 µg/mL (≈ 4.2 µM). For the same compound, the Cytotoxicity in data set [3] is >40 µg/mL.

`Cc1ccc(Oc2nnnn2-c2ccc(OC[C@@]3(C)Cn4cc([N+](=O)[O-])nc4O3)cc2)cc1` [IB9, (R)-2-{4-[5-(4-methylphenoxy)-1H-tetrazol-1-yl]phenoxymethyl}-2,3-dihydro-2-methyl-6-nitroimidazo[2,1-b]oxazole]: the MIC in data set [1] (setting [4]) is 4 µg/mL (≈ 8.9 µM); in data set [1] (504 h, text summary: sensitive H37Rv as well as MDR and XDR strains of M. tuberculosis, read-out: MIC value) it was 1 to 4 µg/mL (≈ 2.23 to 8.9 µM). Further, the Cytotoxicity in data set [3] was >40 µg/mL.

As to `CCC(C)c1ccc(OCc2cc(-c3ccc(OC[C@@]4(C)Cn5cc([N+](=O)[O-])nc5O4)cc3)no2)cc1` (stereo partly drawn) [IC20, (R)-2-{4-[5-(4-sec-butylphenoxymethyl)isoxazol-3-yl]phenoxymethyl}-2,3-dihydro-2-methyl-6-nitroimidazo[2,1-b]oxazole], the minimum inhibitory concentration (MIC) in data set [1] (setting [4]) was found to be 2 µg/mL (≈ 3.96 µM). Besides, the Cytotoxicity in data set [3] was >40 µg/mL.

For the compound `C[C@]1(COc2cccc(-n3cc(-c4ccc(F)cc4F)nn3)c2)Cn2cc([N+](=O)[O-])nc2O1` [IA20, (R)-2-{3-[4-(2,4-difluorophenyl)-1H-1,2,3-triazol-1-yl]phenoxymethyl}-2,3-dihydro-2-methyl-6-nitroimidazo[2,1-b]oxazole], the MIC in data set [1] (setting [4]) was 4 µg/mL (≈ 8.8 µM). The Cytotoxicity in data set [3] was >40 µg/mL.

Turning to `C[C@]1(COc2cccc(-n3cc(-c4ccc(C(F)(F)F)cc4)nn3)c2)Cn2cc([N+](=O)[O-])nc2O1` [IA18, (R)-2-{3-[4-(4-trifluoromethylphenyl)-1H-1,2,3-triazol-1-yl]phenoxymethyl}-2,3-dihydro-2-methyl-6-nitroimidazo[2,1-b]oxazole], the minimum inhibitory concentration (MIC) in data set [1] (setting [4]) turned out to be 2 µg/mL (≈ 4.11 µM). Also, in data set [3], the Cytotoxicity was >40 µg/mL.

On to `Cc1ccc(N(C)S(=O)(=O)c2ccc(OC[C@@]3(C)Cn4cc([N+](=O)[O-])nc4O3)cc2)cc1` [IIB5, (R)—N-methyl-4-{(2-methyl-6-nitro-2,3-dihydroimidazo[2,1-b]oxazol-2-yl)methoxy}-N-(p-tolyl)benzenesulfonamide], for which, in data set [1] (setting [4]), the MIC was 4 µg/mL (≈ 8.72 µM). In addition, the Cytotoxicity in data set [3] is >40 µg/mL.

The term MIC denotes the lowest concentration that inhibits growth of the organism.

The record behind these values is patent publication US9845330B2, “6-nitro-2,3-dihydroimidazo[2,1-b]oxazoles and a process for the preparation thereof” (priority 2013, dated 2017).
